Data as given in patent US9568467B2, “Inhibitors of micro-RNAs for use for preventing and/or attenuating skin ageing” (CHANEL PARFUMS BEAUTE, priority 2012, dated 2017).

Legend:
Format in all cases: cell-based
miR-152 = test: Relative quantification of miR-152 level by Real Time PCR in treated or transfected fibroblasts; conditions: primary human fibroblasts, 48 hours treatment, concentration indicated in FIG. 13 (not given); control = 1.00±0.01
Experimental: (§1) Neonatal Human Primary Dermal Fibroblasts (HDFn, Cascade, Invitrogen, Carlsbad, Calif., USA) were cultured in 106 medium added with LSGS growth supplements (Cascade). Cells were passaged usually once a week, at each passage the harvested cells number and seeded cell number were recorded in order to calculate the population doublings occurring between passages and the population doubling time. At each passage different aliquots of the cells were harvested to extract in triplicate RNA and proteins and an aliquot was submitted to senescence activated β-galactosidase staining in order to assay the senescent or non-senescent state of the cells. […]
(§2) Total RNA from cells was isolated using mirVana mirRNA Isolation Kit (Ambion) by following the manufacturer's protocol for total RNA extraction. Total RNA was quantified using a NanoDrop Spectophotometer (Thermo Scientific, Delaware, USA) and RNA quality was controlled on an agarose gel. […] The expression of each gene and miR was defined from the threshold cycle (Ct), and relative expression levels were calculated by using the 2-ΔΔCt method after normalization with reference to the expression of the housekeeping gene U18.

miR-134 = test: Relative quantification of miR-134 level by Real Time PCR in treated or transfected fibroblasts; conditions: primary human fibroblasts, 48 hours treatment, concentration indicated in FIG. 12 (not given); control = 1.00±0.01
Experimental: as §1, §2

[1] = system: primary human fibroblasts; test: Cell proliferation, BrdU pulse and flow cytometry after transfection; conditions: 96 hours after transfection, 3 h BrdU pulse; negative control 26%
Experimental: (§3) Neonatal Human Primary Dermal Fibroblasts (HDFn, Cascade, Invitrogen, Carlsbad, Calif., USA) were cultured in 106 medium added with LSGS growth supplements (Cascade). Cells were passaged usually once a week, at each passage the harvested cells number and seeded cell number were recorded in order to calculate the population doublings occurring between passages and the population doubling time. At each passage different aliquots of the cells were harvested to extract in triplicate RNA and proteins and an aliquot was submitted to senescence activated β-galactosidase staining in order to assay the senescent or non-senescent state of the cells.
(§4) Human primary fibroblasts were transfected with human pre-miR 134, anti-miR-134, pre-miR-152, anti-miR-152 and scramble sequence as negative control (Ambion, Tex., USA) using the Lipofecatmine RNAimax transfection reagent (Invitrogen) according to manufacturer protocols. 24 hrs after transfection, the medium was removed and replaced with fresh medium.
Methods used to evaluate cell proliferation are generally based on incorporation of thymidine analogues such as 3H thymidine or bromodeoxyuridine (BrdU) during DNA synthesis. […] Cell cycle was analysed using a FACS Calibur flow cytometer (BD Biosciences, San Jose, Calif., USA). Fifteen thousand events were evaluated using the Cell Quest (BD) and Modfit LT (Verity Software; BD) programs.

ITGA9 mRNA = test: Relative quantification of ITGA9 mRNA level by Real Time PCR after transfection; conditions: human dermal fibroblasts, 96 hours after transfection
Experimental: as §1, §2

ITGA5 = test: Western blot of ITGA5 protein level after transfection; conditions: human fibroblasts after transfection; β-Actin loading control
Experimental: as §3, §4
Total cell extracts were resolved on a SDS polyacrylamide gel, blotted on a Hybond P PVDF membrane (G&E Healthcare, UK). […]

ITGA5 mRNA = test: Relative quantification of ITGA5 mRNA level by Real Time PCR after transfection; conditions: human dermal fibroblasts, 96 hours after transfection
Experimental: as §1, §2

## O.Oc1cc(O)c2c(c1)O[C@H](c1ccc(O)c(O)c1)[C@@H](O)C2 [Compound 2, Catechine Hydrate]
miR-152
  expression of miR-152 in treated cells (relative quantification): 0.769±0.03

## O=C(O[C@@H]1Cc2c(O)cc(O)cc2O[C@@H]1c1cc(O)c(O)c(O)c1)c1cc(O)c(O)c(O)c1 [Compound 4, Epigallocatechine Gallate]
miR-152
  expression of miR-152 in treated cells (relative quantification): 0.804±0.05
miR-134
  expression of miR-134 in treated cells (relative quantification): 0.603±0.03

## C[C@@H]1O[C@@H](O[C@@H]2[C@@H](O)[C@H](OCCc3ccc(O)c(O)c3)O[C@H](CO)[C@H]2OC(=O)/C=C/c2ccc(O)c(O)c2)[C@H](O)[C@H](O)[C@H]1O [Compound 5, Verbascoside]
miR-134
  expression of miR-134 in treated cells (relative quantification): 0.734±0.05

## miR-134: human pre-miR 134 (Ambion) transfected into fibroblasts; mature miR-134 SEQ ID No. 1 ugugacugguugaccagagggg (UGUGACUGGUUGACCAGAGGGG; delivered as commercial pre-miR precursor, further chemistry not given here; listed as Homo sapiens)
[1]
  percentage of BrdU positive primary human fibroblasts: 19%
ITGA9 mRNA
  ITGA9 mRNA level reduction: 20%

## miR-152: human pre-miR-152 (Ambion) transfected into fibroblasts; mature miR-152 SEQ ID No. 2 UCAGUGCAUGACAGAACUUGG (delivered as commercial pre-miR precursor, further chemistry not given here; listed as Homo sapiens)
ITGA5
  ITGA5 protein level (Western blot): significant decrease
[1]
  percentage of BrdU positive primary human fibroblasts: 18%
ITGA5 mRNA
  ITGA5 mRNA level reduction: 30%
ITGA9 mRNA
  ITGA9 mRNA level reduction: 40%
